According to the supplement of paper PMC10307832:

Experiments:
Test in all cases: relative viability (nuclei count vs DMSO), 5 days (fraction); higher = more cells survive
Pemetrexed + Dasatinib = compound: Nc1nc2[nH]cc(CCc3ccc(C(=O)N[C@@H](CCC(=O)O)C(=O)O)cc3)c2c(=O)[nH]1 [Pemetrexed] + Cc1nc(Nc2ncc(C(=O)Nc3c(C)cccc3Cl)s2)cc(N2CCN(CCO)CC2)n1 [Dasatinib] (partner 0.075 µM)
Procedure, shortened: (§1)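 The day after seeding in 1536-well plates, lung cancer cell lines were treated by pin tool with a single drug, or with a fixed anchor-drug dose together with five library-drug doses (not always all listed) in √10 steps. After 5 days, a combined fix-and-stain solution (final 0.05% Triton X-100, 1% formaldehyde, 1 ug/ml Hoechst) was added. Nuclei counted on 4× images gave relative viability as treated counts over vehicle counts, reported as the median of duplicate plates.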

Idelalisib + Pictilisib = compound: CC[C@H](Nc1ncnc2[nH]cnc12)c1nc2cccc(F)c2c(=O)n1-c1ccccc1 [Idelalisib] + CS(=O)(=O)N1CCN(Cc2cc3nc(-c4cccc5[nH]ncc45)nc(N4CCOCC4)c3s2)CC1 [Pictilisib] (partner 1 µM)
Procedure, shortened: as §1

Pemetrexed + Alpelisib = compound: Nc1nc2[nH]cc(CCc3ccc(C(=O)N[C@@H](CCC(=O)O)C(=O)O)cc3)c2c(=O)[nH]1 [Pemetrexed] + Cc1nc(NC(=O)N2CCC[C@H]2C(N)=O)sc1-c1ccnc(C(C)(C)C(F)(F)F)c1 [Alpelisib] (partner 2 µM)
Procedure, shortened: as §1

Idelalisib + Foretinib = compound: CC[C@H](Nc1ncnc2[nH]cnc12)c1nc2cccc(F)c2c(=O)n1-c1ccccc1 [Idelalisib] + COc1cc2c(Oc3ccc(NC(=O)C4(C(=O)Nc5ccc(F)cc5)CC4)cc3F)ccnc2cc1OCCCN1CCOCC1 [Foretinib] (partner 0.25 µM)
Procedure, shortened: as §1

Cell Line	relative viability (Pemetrexed + Dasatinib; first compound 0.002 µM)	relative viability (Pemetrexed + Dasatinib; first compound 0.006325 µM)	relative viability (Pemetrexed + Dasatinib; first compound 0.02 µM)	relative viability (Pemetrexed + Dasatinib; first compound 0.06325 µM)	relative viability (Pemetrexed + Dasatinib; first compound 0.2 µM)	relative viability (Idelalisib + Pictilisib; first compound 0.04 µM)	relative viability (Idelalisib + Pictilisib; first compound 0.1265 µM)	relative viability (Idelalisib + Pictilisib; first compound 0.4 µM)	relative viability (Idelalisib + Pictilisib; first compound 1.265 µM)	relative viability (Idelalisib + Pictilisib; first compound 4 µM)	relative viability (Pemetrexed + Alpelisib; first compound 0.002 µM)	relative viability (Pemetrexed + Alpelisib; first compound 0.006325 µM)	relative viability (Pemetrexed + Alpelisib; first compound 0.02 µM)	relative viability (Pemetrexed + Alpelisib; first compound 0.06325 µM)	relative viability (Pemetrexed + Alpelisib; first compound 0.2 µM)	relative viability (Idelalisib + Foretinib; first compound 0.04 µM)	relative viability (Idelalisib + Foretinib; first compound 0.1265 µM)	relative viability (Idelalisib + Foretinib; first compound 0.4 µM)	relative viability (Idelalisib + Foretinib; first compound 1.265 µM)	relative viability (Idelalisib + Foretinib; first compound 4 µM)
LU99A	0.504	0.441	0.459	0.516	0.542	0.324	0.339	0.263	0.385	0.279	0.517	0.556	0.492	0.498	0.346	0.939	0.847	0.775	0.79	0.775
HOP-62	0.522	0.636	0.659	0.674	0.629	0.883	0.712	–	0.649	0.792	0.842	0.868	0.896	0.847	0.957	1.15	1.05	1.15	1.15	1.1
HCC-15	0.661	0.609	0.619	0.31	0.148	0.762	0.748	0.662	0.866	0.728	0.821	0.847	0.867	0.666	0.519	1.09	1.02	0.975	1.18	0.94
HARA	0.231	0.237	0.327	0.2	0.162	0.376	0.409	0.287	0.403	0.266	0.822	0.814	0.862	0.799	0.275	1.24	0.934	0.776	1.04	0.746
SK-MES-1	0.411	0.367	0.516	0.328	0.339	0.377	0.365	0.355	0.414	0.36	0.92	0.732	1.04	0.864	0.8	0.904	0.768	0.55	0.768	0.544
NCI-H1355	0.612	0.692	0.703	0.748	0.752	0.521	0.501	0.4	0.376	0.449	0.805	0.768	0.822	0.843	0.858	0.992	0.946	0.907	0.868	0.823
NCI-H727	–	0.395	0.386	0.421	0.381	0.385	0.66	0.312	0.773	0.476	0.577	0.534	0.596	0.678	0.594	1.1	0.968	0.629	0.92	0.691
NCI-H520	0.235	0.224	0.208	0.203	0.235	0.394	0.308	0.283	0.294	0.309	0.92	0.828	0.948	0.823	0.697	0.738	0.741	0.587	0.7	0.553
NCI-H838	0.361	0.285	0.262	0.212	0.218	0.505	0.469	0.346	0.531	0.469	0.989	0.878	1.14	0.934	0.372	1.08	0.947	0.912	0.931	0.821
LK-2	0.289	0.198	0.318	0.341	0.254	0.545	0.431	–	0.534	0.586	–	1.07	1.12	0.962	0.773	1.75	1.16	–	1.29	0.836
HCC-827	0.369	0.287	0.349	0.362	0.339	0.995	1.06	1.05	1.09	0.843	0.891	0.977	0.996	1.07	0.726	1.1	0.971	1.04	1.05	0.915
SW 1573	0.524	0.448	0.735	0.593	0.42	0.547	0.523	0.513	0.668	0.393	0.826	0.741	0.723	0.733	0.76	1.05	1.07	0.786	0.986	0.971
NCI-H2023	0.506	0.505	0.6	0.433	0.195	0.221	0.279	0.153	0.241	0.266	0.573	0.521	0.558	0.524	0.289	0.92	0.859	0.617	0.739	0.637
EPLC-272H	0.328	0.382	0.419	0.299	0.297	0.299	0.313	0.236	0.402	0.316	0.876	0.938	1.11	0.962	0.847	0.793	0.667	0.662	0.635	0.517
SK-LU-1	0.184	0.205	0.185	0.198	0.162	0.553	0.668	0.532	0.574	0.552	0.874	1.02	1.04	0.931	1.02	0.816	0.765	0.811	0.693	0.766
NCI-H358	0.145	0.176	0.205	0.167	0.165	0.359	0.355	0.281	0.342	0.355	0.917	0.79	0.538	0.314	0.27	0.782	0.701	0.554	0.652	0.734

Cell Line	relative viability (Pemetrexed + Dasatinib; first compound 0.002 µM)	relative viability (Pemetrexed + Dasatinib; first compound 0.006325 µM)	relative viability (Pemetrexed + Dasatinib; first compound 0.02 µM)	relative viability (Pemetrexed + Dasatinib; first compound 0.06325 µM)	relative viability (Pemetrexed + Dasatinib; first compound 0.2 µM)	relative viability (Idelalisib + Pictilisib; first compound 0.04 µM)	relative viability (Idelalisib + Pictilisib; first compound 0.1265 µM)	relative viability (Idelalisib + Pictilisib; first compound 0.4 µM)	relative viability (Idelalisib + Pictilisib; first compound 1.265 µM)	relative viability (Idelalisib + Pictilisib; first compound 4 µM)	relative viability (Pemetrexed + Alpelisib; first compound 0.002 µM)	relative viability (Pemetrexed + Alpelisib; first compound 0.006325 µM)	relative viability (Pemetrexed + Alpelisib; first compound 0.02 µM)	relative viability (Pemetrexed + Alpelisib; first compound 0.06325 µM)	relative viability (Pemetrexed + Alpelisib; first compound 0.2 µM)	relative viability (Idelalisib + Foretinib; first compound 0.04 µM)	relative viability (Idelalisib + Foretinib; first compound 0.1265 µM)	relative viability (Idelalisib + Foretinib; first compound 0.4 µM)	relative viability (Idelalisib + Foretinib; first compound 1.265 µM)	relative viability (Idelalisib + Foretinib; first compound 4 µM)
ABC-1	0.785	0.591	0.626	0.546	0.422	0.726	0.771	0.566	0.813	0.723	1.13	0.937	1.28	1.03	0.87	1.09	1.06	0.853	0.963	0.977
NCI-H1395	0.441	0.471	0.481	0.369	0.401	0.714	0.525	0.564	0.613	0.557	0.964	0.916	1.14	1.14	1.02	1.02	0.959	0.976	0.963	0.707
NCI-H2085	0.23	0.228	0.291	0.23	0.242	0.531	0.452	0.38	0.451	0.413	0.91	0.952	1.07	0.951	0.952	0.971	0.913	0.688	0.777	0.556
NCI-H1563	0.24	0.453	0.486	0.426	0.492	0.656	0.663	0.583	0.658	0.678	0.904	0.922	0.976	0.875	0.954	0.969	0.941	0.873	0.877	0.788
NCI-H2087	0.819	0.808	0.974	0.751	0.59	0.989	0.743	0.853	0.907	0.904	0.939	1.02	0.926	1.01	0.603	1.28	1.04	0.842	0.908	0.579
NCI-H322M	0.248	0.257	0.262	0.242	0.235	0.546	0.584	0.444	0.508	0.549	0.814	0.724	0.813	0.776	0.773	1.22	1.1	0.792	0.841	0.908
NCI-H1734	0.388	0.445	0.49	0.433	0.381	0.519	0.492	0.41	0.453	0.37	0.694	0.731	0.629	0.632	0.698	0.911	0.911	0.836	0.957	0.642
NCI-H2228	0.444	–	0.472	0.337	0.2	0.383	0.367	0.355	0.396	0.421	0.833	0.721	0.752	0.474	0.319	0.874	0.835	0.614	0.87	0.788
EKVX	0.572	0.544	0.615	0.336	0.479	0.498	0.456	0.384	0.356	0.447	0.827	0.89	0.943	0.827	0.615	0.826	0.984	0.773	0.843	0.808
NCI-H596	0.634	0.642	0.464	0.427	0.414	0.412	0.402	0.389	0.405	0.65	0.409	0.485	0.593	0.39	0.374	0.95	0.885	0.671	0.909	0.681
NCI-H1975	0.249	0.333	0.429	0.342	0.275	0.324	0.295	0.249	0.316	0.271	–	0.63	0.704	0.535	0.4	0.934	0.931	0.885	0.86	0.867
NCI-H2170	0.581	0.631	0.612	0.505	0.575	0.313	0.312	0.228	0.295	0.29	0.723	0.831	0.905	0.869	0.824	0.952	1.05	0.947	1.03	0.947
NCI-H1666	0.778	0.857	0.818	0.754	0.585	0.541	0.48	0.469	0.361	0.333	1.02	0.853	0.969	0.88	0.595	0.825	1.07	0.961	1.01	0.947
PC-3 [JPC-3]	0.845	0.988	1.03	0.983	0.941	0.895	0.749	0.73	0.737	0.601	0.948	1.04	1.04	1.03	0.972	1.01	0.961	1.01	1.06	0.957
NCI-H1755	0.397	0.409	0.448	0.436	0.379	0.444	0.466	0.358	0.41	0.372	0.828	0.935	0.923	0.926	0.862	0.951	0.915	0.889	0.843	0.9
RERF-LC-KJ	0.767	0.881	0.856	0.849	0.382	0.493	0.521	0.581	0.516	0.53	1.12	0.774	0.84	0.868	0.538	0.879	0.953	0.809	0.871	0.768
